PMC9727064, “Performance assessment and economic analysis of a human Liver-Chip for predictive toxicology” (Communications Medicine, 2022)
Several values for one entry are separate records, joined by “and”; a condition that tells them apart may be missing. Identical values can stand only once. Like-named read-outs stand apart in the source and are kept apart here.

Tests used:
[1] = tested on: human Liver-Chip (hepatocytes and non-parenchymal cells); conditions: for Morphology Score: injury score 0-4, averaged, one line per replicate chip
Experimental: At least four to six brightfield images were acquired per chip for morphology analysis. […] Brightfield images were acquired across three fields of view on days 1, 3, and 7 for each cycle. Cytotoxicity classification was performed while acquiring images for both NPCs and hepatocytes. Images were then scored zero to four by blinded individuals (n = 2) based on severity of agglomeration of cell debris for both channels. The scoring matrix and representative images have been included in the supplement (Supplementary Fig. 1).
Hepatocyte layer on Chips
Non-parenchymal cell layer on Chips
Supplementary Figure 1. (a) Representative brightfield images to depict the cellular morphology score in the top channel of the Liver-Chip which contains hepatocytes. A score of 0 represents no hepatotoxicity detected, which is defined by 95-100% healthy hepatocyte morphology, hexagonal shape containing binucleated cells, clear cell cytoplasm, distinctive cell junctions and less than 5% dead cells. A score of 1 […]
cells. A score of 2 represents mild hepatotoxicity with > 70% monolayer of hepatocytes visible, evidence that cells have begun to lose their distinct cell junctions, many cells contain a granulated cytoplasm but < 30% are dead cells. A score of 3 represents moderate hepatotoxicity with severe granulation of cytoplasm and most of the cells have lost their junctions. Approximately 50% of the cells are considered dead. A score of 4 represents severe hepatotoxicity with agglomeration of cell debris and > 50% of the cells are considered dead. The pores on the membrane become visible as there is no longer a cellular monolayer. (b) Representative brightfield images to depict the cellular morphology score in the bottom channel of the Liver-Chip which contains non-parenchymal cells. A score of 0 represents no cytotoxicity detected, with an intact monolayer and <1% of the cells are dead. A score of 1 represents at least 90% of the monolayer is present and there are <10% dead cells. A score of 2 represents mild cytotoxicity with > 80% of the monolayer present and < 20% are dead cells. A score of 3 represents moderate cytotoxicity with > 50% of the monolayer present and < 50% are dead cells. A score of 4 represents severe cytotoxicity with > 50% of the cells are considered dead. (bar, 50 μm). […]

[2] = tested on: human Liver-Chip (hepatocyte layer); experiment: Liver-Chip immunofluorescence imaging (caspase 3/7, TMRM, AdipoRed/LipidTOX); assay type: cell-based; conditions: for Immunofluorescent findings, donor one (Supplementary Figure 3) / Immunofluorescent findings, donor two (Supplementary Figure 3) / Immunofluorescent findings, donor three (Supplementary Figure 3): day 7 post-drug administration, hepatocyte layer, top channel; for Immunofluorescence staining result in words: caspase 3/7 (apoptosis) or TMRM (mitotoxicity), 7 days
Experimental: Chips were detached from pods and washed once with PBS. […] Afterwards, chips were washed with PBS and stored at 4 °C until staining. Following fixation, chips corresponding to low, medium, and high concentrations from each group were cut in half with a razor blade perpendicular to the co-culture channels. One half was used in the following staining protocol, while the other half was stored for future staining. All stains and washes utilized the bubble method, in which a small amount of air is flowed through the channel prior to bulk wash media to prevent a liquid-liquid dilution of the staining solution. […] Following 15 minutes of incubation at room temperature, each channel was washed with 200 µL of PBS (alternating channels, 2× for top and 3× for bottom). As an alternative lipid accumulation marker, 100 µL of HCS LipidTOX Deep Red (ThermoFisher, H34477) was diluted 1:1000 v/v in PBS with NucBlue counterstain and added to the top channel. After a 30 min incubation at room temperature, the chips were again allowed to reach room temperature before the channels were alternatively washed with 200 µL of PBS, the bottom channel undergoing three washes and the top channel undergoing two. Chips were then imaged using the Opera Phenix. Following lipid and DAPI staining and imaging, chips were stained with a […] (MRP2) antibody to visualize the bile canalicular structures characteristic of healthy Liver-Chips. […] Then, each channel was washed with 200 µL of PBS (alternating channels, 2× for top and 3× for bottom). […] Next, primary antibody Mouse anti-MRP2 (Abcam, ab3373) was prepared 1:100 in the original blocking buffer, diluted 1:4 in PBS. 100 µL of solution was added to each channel, and chips were stored overnight at 4 °C. The following day, each channel was washed with 200 µL of PBS (alternating channels, 2× for top and 3× for bottom). […] 100 µL of solution was added to each channel and chips incubated at room temperature, protected from light, for two hours. Then, each channel was washed with 200 µL of PBS (alternating channels, 2× for top and 3× for bottom). Chips were imaged immediately or stored at 4 °C until ready for imaging on the Opera Phenix. Chip replicates designated for live cell imaging were washed with PBS utilizing the bubble method. Chips were then cut in half perpendicular to the co-culture channels. […] The bottom chips halves were stained with NucBlue (Thermo) to visualize nuclei and Tetramethylrhodamine, methyl ester (TMRM) (ThermoFisher, I34361) to visualize active mitochondria. This staining panel was prepared in PBS with 5% FBS, with NucBlue at 2 drops per mL and TMRM at a 1:1000 ratio in original blocking buffer, diluted 1:4 in PBS. Chips were incubated in the dark at 37 °C for 30 min, and then each channel was washed with 200 µL of PBS (alternating channels, 2× for top and 3× for bottom). The chips were kept at 37 °C, protected from light, until ready for imaging with the Opera Phenix. Fluorescent confocal image acquisition was performed using the Opera Phenix High-Content Screening System and Harmony 4.9 Imaging and Analysis Software (PerkinElmer). Before acquisition, the Phenix internal environment was set to 37 °C and 5% CO2. […] Whole chips were placed directly into each slot, while top and bottom half chips were matched and combined in one chip slot. Chips were aligned flush with the adapter and one another. Any bubbles identified from visual inspection were washed out with PBS. Once ready, the stained chips were covered with transparent plate film to seal channel ports and loaded into the Phenix. […] Z-stacks were generated with 3.6 µm between slices for 28–32 planes so that the epithelium was located around the center of the stack. […] Raw images from fixed and live imaging were exported in TIFF format from the Harmony software. Using scripts written for FIJI (ImageJ), TIFFs across three color channels and multiple z-stacks were compiled into composite images for each field of view in each chip. […]

[3] = lowest concentration causing an increase in cellular morphology score, donor 1
[4] = lowest concentration causing an increase in cellular morphology score, donor 2

SMILES: O=c1[nH]c(=O)n([C@@H]2O[C@H](CO)[C@@H](O)[C@@H]2F)cc1I [Fialuridine]
- Morphology Donor 1 ([1]; human): >300 multiples of the unbound human Cmax
- Morphology Donor 2 ([1]; human): >300 multiples of the unbound human Cmax
- Immunofluorescent findings, donor one (Supplementary Figure 3) [2]: No findings
- Immunofluorescent findings, donor two (Supplementary Figure 3) [2]: Steatosis
- IF imaging Donor 1 ([2]; matched pair analysis): No findings
- IF imaging Donor 2 ([2]; matched pair analysis): Steatosis

SMILES: CC(CCc1ccccc1)NCC(O)c1ccc(O)c(C(N)=O)c1 (stereo not shown) [Labetalol]
- Morphology Donor 1 ([1]; human): > 100 unbound human Cmax multiplier
- Morphology Donor 2 ([1]; human): 100 unbound human Cmax multiplier
- Immunofluorescent findings, donor one (Supplementary Figure 3) [2]: Apoptosis
- Immunofluorescent findings, donor two (Supplementary Figure 3) [2]: Apoptosis
- IF imaging Donor 1 ([2]; expanded drug list): Apoptosis
- IF imaging Donor 2 ([2]; expanded drug list): Apoptosis

SMILES: O=C(NC1CCN(CCCCC2(C(=O)NCC(F)(F)F)c3ccccc3-c3ccccc32)CC1)c1ccccc1-c1ccc(C(F)(F)F)cc1 [Lomitapide]
- Morphology Donor 1 ([1]; expanded drug list, lowest concentration causing an increase in morphology score, donor 1): < 0.1 unbound human Cmax multiplier
- Immunofluorescent findings, donor one (Supplementary Figure 3) [2]: No findings
- IF imaging Donor 1 ([2]; expanded drug list): No findings

SMILES: C[C@H]1COc2c(N3CCN(C)CC3)c(F)cc3c(=O)c(C(=O)O)cn1c23 [Levofloxacin]
- Morphology Donor 1 ([1]; human): >15 multiples of the unbound human Cmax
- Morphology Donor 2 ([1]; human): >45 multiples of the unbound human Cmax
- Morphology Donor 3 ([1]; human): >45 multiples of the unbound human Cmax
- Immunofluorescence staining result in words [2]: did not cause cellular apoptosis
- Immunofluorescent findings, donor one (Supplementary Figure 3) [2]: No findings
- Immunofluorescent findings, donor three (Supplementary Figure 3) [2]: No findings
- IF imaging Donor 1 ([2]; matched pair analysis): No findings
- IF imaging Donor 2 ([2]; matched pair analysis): No findings
- IF imaging Donor 3 ([2]; matched pair analysis): No findings

SMILES: Cc1cc2c(s1)Nc1ccccc1N=C2N1CCN(C)CC1 [Olanzapine]
- Morphology Score ([1]; Concentration_Day3 = 1): 2 and 1
- Morphology Score ([1]; Concentration_Day3 = 3): 1.333 and 1
- Morphology Score ([1]; Concentration_Day3 = 10): 2 and 1
- Morphology Score ([1]; Concentration_Day3 = 30): 2
- Morphology Score ([1]; Concentration_Day3 = 100): 1.667 and 1.333
- Morphology Score ([1]; Concentration_Day3 = 300): 1.333 and 2
- Morphology Donor 1 [1, 3]: >300 multiples of the unbound human Cmax
- Morphology Donor 2 [1, 4]: >300 multiples of the unbound human Cmax
- Morphology Donor 3 ([1]; lowest concentration causing an increase in cellular morphology score, donor 3): >300 multiples of the unbound human Cmax
- Immunofluorescent findings, donor one (Supplementary Figure 3) [2]: Apoptosis
- Immunofluorescent findings, donor three (Supplementary Figure 3) [2]: No findings
- IF imaging Donor 1 ([2]; matched pair analysis): Apoptosis
- IF imaging Donor 2 ([2]; matched pair analysis): No findings
- IF imaging Donor 3 ([2]; matched pair analysis): No findings

SMILES: O=c1[nH]c(=O)n([C@@H]2O[C@H](CO)[C@@H](O)[C@@H]2F)cc1I [FIRU]
- Morphology Donor 1 [1, 3]: >300 multiples of the unbound human Cmax
- Morphology Donor 2 [1, 4]: >300 multiples of the unbound human Cmax
- Immunofluorescent findings, donor one (Supplementary Figure 3) [2]: No findings
- IF imaging Donor 1 ([2]; matched pair analysis): No findings
- IF imaging Donor 2 ([2]; matched pair analysis): Steatosis

SMILES: C=C[C@@H]1C[C@]1(NC(=O)[C@@H]1C[C@@H](Oc2ncc(OC)c3ccc(Cl)cc23)CN1C(=O)[C@@H](NC(=O)OC(C)(C)C)C(C)(C)C)C(=O)NS(=O)(=O)C1CC1 [Asunaprevir]
- Morphological injury score change in words [1]: concentration and time-dependent changes
- Morphology Donor 1 ([1]; human): 1000 unbound human Cmax multiplier
- Immunofluorescence staining result in words [2]: apoptosis-mediated cell death
- IF imaging Donor 1 ([2]; expanded drug list): Apoptosis

SMILES: CC[C@H]1OC(=O)[C@H](C)C(=O)[C@H](C)[C@@H](O[C@@H]2O[C@H](C)C[C@H](N(C)C)[C@H]2O)[C@](C)(OC)C[C@@H](C)C(=O)[C@H](C)[C@H]2N(CCCCn3cnc(-c4cccnc4)c3)C(=O)O[C@]12C [Telithromycin]
- Morphological injury score change in words [1]: concomitant increase
- Morphology Donor 1 ([1]; human): 100 unbound human Cmax multiplier
- Immunofluorescence staining result in words [2]: apoptosis-mediated cell death
- Immunofluorescent findings, donor one (Supplementary Figure 3) [2]: Apoptosis
- IF imaging Donor 1 ([2]; expanded drug list): Apoptosis

SMILES: CCc1ccc(CCOc2ccc(CC3SC(=O)NC3=O)cc2)nc1 (stereo not shown) [Pioglitazone]
- Morphology Donor 1 ([1]; human): >300 multiples of the unbound human Cmax
- Morphology Donor 2 ([1]; human): >300 multiples of the unbound human Cmax
- Immunofluorescent findings, donor one (Supplementary Figure 3) [2]: Apoptosis
- Immunofluorescent findings, donor two (Supplementary Figure 3) [2]: No findings
- IF imaging Donor 1 ([2]; matched pair analysis): Apoptosis
- IF imaging Donor 2 ([2]; matched pair analysis): No findings

SMILES: CCN(CC)C(=O)/C(C#N)=C/c1cc(O)c(O)c([N+](=O)[O-])c1 [Entacapone]
- Morphology Donor 1 [1, 3]: >300 multiples of the unbound human Cmax
- Immunofluorescent findings, donor one (Supplementary Figure 3) [2]: No findings
- IF imaging Donor 1 ([2]; matched pair analysis): No findings
